# Source: publication PMC10803328 (Scientific Reports, 2024)
# Entries after “also recorded” stand apart in the source; their conditions may differ. Read-outs that look alike come from different tables or passages of the source.
# Tests used:
# α7-nAChR = biological target: α7-nAChR; set-up: method as in PMID 30872534, PMID 24556591; conditions: cited from earlier work; for Ki: in vitro binding assay, literature
# α4β2 nAChR = biological target: α4β2 nAChR; set-up: method as in PMID 30872534, PMID 24556591; conditions: in vitro binding assay, literature; cited from earlier work
# PSAM^4-GlyR [1] = tested on: PSAM^4-GlyR; set-up: method as in PMID 30872534; conditions: rhesus monkey, globus pallidus internal region (GPi), PSAM^4-GlyR activated by the ligand; cited from earlier work
# PSAM^4-GlyR [2] = tested on: PSAM^4-GlyR; set-up: method as in PMID 30872534; conditions: area CA1 of mouse hippocampal neurons, acting on PSAM^4-GlyR; cited from earlier work
# PSAM^4-GlyR [3] = tested on: PSAM^4-GlyR; set-up: method as in PMID 30872534; conditions: PSAM^4-GlyR transduced mouse; cited from earlier work
# PSAM^4-GlyR [4] = biological target: T1, PSAM^4-GlyR (Homo sapiens, UniProt P23415+P36544, L131G/Q139L/Y217F); assay: Competitive binding assay with [^3H]ASEM on membranes of HEK-293 cells transduced with PSAM^4-GlyR; set-up: expressed in transfected cells; host or cells: HEK-293 (membrane fraction)
# Description: HEK-293 cells were transduced with plasmids (5 μg per dish) of encoding PSAM^4-GlyR (in pcDNA3.1) or a control vector (GFP) and harvested 48 h after transduction. Cells were suspended in Tris–HCl buffer (50 mM, pH 7.4) supplemented with a protease inhibitor cocktail (1:100, Sigma-Aldrich; St Louis, MO). HEK-293 cells were disrupted with a Polytron homogenizer (Kinematica; Basel, Switzerland). Homogenates were centrifuged at 48,000g (50 min, 4 °C) and washed twice in the same conditions to isolate the membrane fraction. Protein was quantified by the bicinchoninic acid method (Pierce, ThermoFisher Scientific, MA). […] In all cases, free and membrane-bound radioligand were separated by rapid filtration of 500-μL aliquots in a 96-well plate harvester (Brandel; Gaithersburg, MD) and washed with ice-cold Tris–HCl buffer (2 mL). Microscint-20 scintillation liquid (65 μL per well, PerkinElmer; Boston, MA) was added to the filter plates. Plates were incubated overnight at room temperature and radioactivity counts were determined in a MicroBeta2 plate counter (PerkinElmer) with an efficiency of 41%. One-site competition curves were fitted using Prism 7 (GraphPad Software; La Jolla, CA). Ki values were calculated using the Cheng-Prusoff equation.
# P-gp = conditions: cited from earlier work
# [5] = Measurement of apparent pKa by radiotracer partition; type: physicochemical; conditions: cyclohexane / sodium phosphate buffer partition; cyclohexane / phosphate buffers pH 3.0-10.5, n = 3
# Description: The method was similar to that followed previously for other radiotracers. Sodium phosphate buffers (0.15 M), with pH values of 3.0, 3.5, 4.0, 4.5, 5.0, 5.5, 6.0, 6.5, 7.0, 7.4, 8.0, 8.5, 9.0, 9.5, 10.0, and 10.5, were prepared from 0.15 M NaH2PO4 and 0.1 M Na2HPO4 and distributed (1 mL per tube) as the aqueous phase. [^11C]uPSEM, formulated in ethanol (20 µL, 2.4 ± 0.3 MBq, n = 48), was added to each tube. Triple sets of such tubes were prepared simultaneously. Cyclohexane (1.0 mL) was added to each of the tubes containing the buffer and the [^11C]uPSEM and then vigorously vortexed for 1 min. The tubes were then centrifuged for one minute. The two phases in each tube were separated, sampled (50 µL aqueous, 200 µL organic) and counted in a γ-counter. Distribution coefficients at each pH were calculated by dividing the counts detected in the organic phase by the total activity present in both phases. These distribution coefficients were plotted versus pH and nonlinear regression analysis applied with GraphPad Prism version 4.03 for windows (GraphPad Software; San Diego, CA) using “One site competition” curve-fitting. […] The radiochemical purity of the [^11C]uPSEM preparation was 98.8% as determined by radio-HPLC on an X-Terra […] column (10 µm, 7.8 × 300 mm; Waters Corp.) and a mobile phase of MeOH:H2O:Et3N (55:45:0.1, by vol) at 5.0 mL/min.
# PSAM^4-GlyR [6] = biological target: T1, PSAM^4-GlyR; set-up: expressed in transfected cells; method as in PMID 30872534, PMID 24556591, PMID 36279419; conditions: read-out: PSAM^4-GlyR (Ki); in vitro binding assay, literature; cited from earlier work
# T1 sequence (P36544+P23415 fused P36544:L131G/P36544:Q139L/P36544:Y217F): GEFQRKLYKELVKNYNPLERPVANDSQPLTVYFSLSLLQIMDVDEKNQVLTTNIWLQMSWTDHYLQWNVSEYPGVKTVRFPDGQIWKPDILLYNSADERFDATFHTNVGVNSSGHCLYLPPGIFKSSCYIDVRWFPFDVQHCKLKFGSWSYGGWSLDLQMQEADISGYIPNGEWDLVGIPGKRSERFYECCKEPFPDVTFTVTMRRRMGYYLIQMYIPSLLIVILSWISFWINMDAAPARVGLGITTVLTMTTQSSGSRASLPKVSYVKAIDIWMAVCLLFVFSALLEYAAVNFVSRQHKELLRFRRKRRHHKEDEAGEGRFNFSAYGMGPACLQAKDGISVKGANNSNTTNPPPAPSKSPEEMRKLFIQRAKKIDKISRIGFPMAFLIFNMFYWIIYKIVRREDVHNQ
SMILES,Ki (α7-nAChR),Ki (α4β2 nAChR),effect on neuronal firing rate (PSAM^4-GlyR [1]),affinity to α7-nAChRs (in words) (α7-nAChR),neuronal silencing (PSAM^4-GlyR [2]),blocking of [^18F]ASEM binding in brain (PSAM^4-GlyR [3]),Ki (PSAM^4-GlyR [4]),P-gp substrate in vitro (P-gp),pKa [5],Ki (PSAM^4-GlyR [6])
O=S1(=O)c2cc(N3CCN4CCC3CC4)ccc2-c2cccc(F)c21 [ASEM],0.3 nM,4000 nM,–,–,–,–,–,–,–,–
"c1cnc2cc3c(cc2n1)[C@@H]1CNC[C@H]3C1 [Varenicline, varenicline]",–,–,reduces neuronal firing rate,–,–,–,–,–,–,–
"Cn1c(=O)cnc2cc3c(cc21)C1CNCC3C1 (centres unmarked) [uPSEM792, 1-Methyl-1,6,7,8,9,10-hexahydro-2H-6,10-methanoazepino[4,5-g]quinoxalin-2-one]",8000 nM,–,–,low affinity,Neuronal silencing has been shown,able to block [^18F]ASEM binding,2.62 nM,not a P-gp substrate in vitro; also recorded: not to be a P-gp substrate,9.92 ± 0.05,0.7 nM
